One molecule from PMC2810227, “3-O-Methylfunicone, a Selective Inhibitor of Mammalian Y-Family DNA Polymerases from an Australian Sea Salt Fungal Strain” (Marine Drugs, 2009) can be followed below.

In test [1] the target is T1, pol α from calf thymus (Bos taurus, UniProt A0AAA9TD94).
T1 construct: Pol α was purified from calf thymus; from tissue; host or cells: calf thymus
As to the kind of experiment: DNA polymerase assay, pol α. The note with it: 100 μM. It is filed as biochemical. An excerpt:
(§1) Pol α was purified from calf thymus by immuno-affinity column chromatography, as described by Tamai et al.. Recombinant rat pol β was purified from E. coli JMpβ5, as described by Date et al.. The human pol γ catalytic gene was cloned into pFastBac. Histidine-tagged enzyme was expressed using the BAC-TO-BAC HT Baculovirus Expression System according to the supplier’s manual (Life Technologies, MD, USA) and purified using ProBoundresin (Invitrogen Japan, Tokyo, Japan). Human pols δ and ɛ were purified by nuclear fractionation of human peripheral blood cancer cells (Molt-4) using the second subunit of pols δ and ɛ-conjugated affinity column chromatography, respectively. A truncated form of human pol η (residues 1–511) tagged with His6 at its C-terminal was expressed in E. coli cells and purified as described by Kusumoto et al.. A recombinant mouse pol ι tagged with His6 at its C-terminal was expressed and purified by Ni-NTA column chromatography as described elsewhere (Masutani et al., in preparation). […]
(§2) The compounds were dissolved in distilled dimethyl sulfoxide (DMSO) at various concentrations and sonicated for 30 sec. […] Activity without the inhibitor was considered 100%, and the remaining activity at each concentration of the inhibitor was determined relative to this value. […]

Test [2] concerns the target T2, fruit fly pol α (Drosophila melanogaster, UniProt P26019).
T2 construct: purified from early embryos of Drosophila melanogaster; from tissue; host or cells: early embryos of Drosophila melanogaster
As to the kind of experiment: DNA polymerase assay, insect pol α. It is filed as biochemical. The note with it: 100 μM.
Description: as §1, §2

Test [3] deals with T3, fruit fly pol ɛ (Drosophila melanogaster, UniProt Q9VCN1).
T3 construct: purified from early embryos of Drosophila melanogaster; from tissue; host or cells: early embryos of Drosophila melanogaster
Kind of test: DNA polymerase assay, insect pol ɛ. The format is biochemical. The note with it: 100 μM.
Description: as §1, §2

The target of test [4] is T4, T4 pol (Enterobacteria phage T4, UniProt P04415).
T4 construct: purchased Takara Bio (Tokyo, Japan)
As to the kind of experiment: DNA polymerase assay, T4 pol. Particulars: 100 μM. It is filed as biochemical.
Description: as §1, §2

Test [5] addresses human telomerase (Homo sapiens, UniProt O14746). As to the kind of experiment: Telomerase assay. It is filed as biochemical. Particulars: 100 μM. How it is done:
(§3) The activities of calf primase of pol α, human telomerase, T7 RNA polymerase, mouse IMP dehydrogenase, human DNA topoisomerases I and II, T4 polynucleotide kinase and bovine DNase I were measured in standard assays according to the manufacturer’s specifications, as described by Tamiya-Koizumi et al., Oda et al., Nakayama et al., Mizushina et al., Ishimaru et al., Soltis et al. and Lu et al., respectively.

The target of test [6] is T5, human topoisomerase II (Homo sapiens, UniProt P11388).
T5 construct: Purified human placenta DNA topoisomerases I and II were purchased from TopoGen, Inc; purchased TopoGen, Inc. (Columbus, OH, USA); host or cells: human placenta (tissue-purified)
As to the kind of experiment: DNA topoisomerase II assay. The note with it: 100 μM. The format is biochemical.
Description: as §1, with “al..” for “al.. A recombinant mouse pol ι tagged with His6 at its C-terminal was expressed and purified by Ni-NTA column chromatography as described elsewhere (Masutani et al., in preparation).”
as §3

The test system of test [7] is HeLa (cervix carcinoma cells). Kind of test: Cancer cell growth, MTT assay, HeLa. The format is cell-based, human. Particulars: 24 h. The procedure: Figure 5. (A) Human cancer cell growth inhibition dose-response curves of 3-O-methyl-funicone (1). Various concentrations (0 to 150 μM) of compound 1 were incubated with human colon carcinoma (HCT116) cells (circle) and human cervix carcinoma (HeLa) cells (square) for 24 h. Rate of cell growth was determined by MTT assay as described in the Experimental section. Data are shown as the means ± SEM of five independent experiments. (B) Clonogenic survival of UV-treated HeLa cells by compound 1. Various concentrations (0 to 100 μM) of compound 1 were incubated with 10 J/m^2 UV-treated (closed circle) or untreated (open circle) HeLa cells. After 7 days, the number of colonies in each treatment group was counted. Values are the means ± SEM of two independent experiments.
Human colon carcinoma cell line, HCT116, was a kind gift from Dr. Bert Vogelstein (Johns Hopkins University, Baltimore, […], USA). Human cervix carcinoma cell line, HeLa, was obtained from Health Science Research Resources Bank (Osaka, Japan). The cells were maintained in McCoy’s 5A medium supplemented with 10% FBS, sodium bicarbonate (2 g/L) and streptomycin (100 μg/mL). The cells were cultured at 37 °C in standard medium in a humidified atmosphere of 5% CO2-95% air. […] After incubation for 24 h, the survival rate was determined by MTT (3-(4,5-dimethylthiazol-2-yl)-2,5-diphenyl tetrazolium bromide) assay.
(Tetrazolium assays rely on reduction of a dye to a coloured formazan, in cell work by metabolically active cells.)

Each structure is given as a SMILES string.

T2 sequence (P26019 whole entry): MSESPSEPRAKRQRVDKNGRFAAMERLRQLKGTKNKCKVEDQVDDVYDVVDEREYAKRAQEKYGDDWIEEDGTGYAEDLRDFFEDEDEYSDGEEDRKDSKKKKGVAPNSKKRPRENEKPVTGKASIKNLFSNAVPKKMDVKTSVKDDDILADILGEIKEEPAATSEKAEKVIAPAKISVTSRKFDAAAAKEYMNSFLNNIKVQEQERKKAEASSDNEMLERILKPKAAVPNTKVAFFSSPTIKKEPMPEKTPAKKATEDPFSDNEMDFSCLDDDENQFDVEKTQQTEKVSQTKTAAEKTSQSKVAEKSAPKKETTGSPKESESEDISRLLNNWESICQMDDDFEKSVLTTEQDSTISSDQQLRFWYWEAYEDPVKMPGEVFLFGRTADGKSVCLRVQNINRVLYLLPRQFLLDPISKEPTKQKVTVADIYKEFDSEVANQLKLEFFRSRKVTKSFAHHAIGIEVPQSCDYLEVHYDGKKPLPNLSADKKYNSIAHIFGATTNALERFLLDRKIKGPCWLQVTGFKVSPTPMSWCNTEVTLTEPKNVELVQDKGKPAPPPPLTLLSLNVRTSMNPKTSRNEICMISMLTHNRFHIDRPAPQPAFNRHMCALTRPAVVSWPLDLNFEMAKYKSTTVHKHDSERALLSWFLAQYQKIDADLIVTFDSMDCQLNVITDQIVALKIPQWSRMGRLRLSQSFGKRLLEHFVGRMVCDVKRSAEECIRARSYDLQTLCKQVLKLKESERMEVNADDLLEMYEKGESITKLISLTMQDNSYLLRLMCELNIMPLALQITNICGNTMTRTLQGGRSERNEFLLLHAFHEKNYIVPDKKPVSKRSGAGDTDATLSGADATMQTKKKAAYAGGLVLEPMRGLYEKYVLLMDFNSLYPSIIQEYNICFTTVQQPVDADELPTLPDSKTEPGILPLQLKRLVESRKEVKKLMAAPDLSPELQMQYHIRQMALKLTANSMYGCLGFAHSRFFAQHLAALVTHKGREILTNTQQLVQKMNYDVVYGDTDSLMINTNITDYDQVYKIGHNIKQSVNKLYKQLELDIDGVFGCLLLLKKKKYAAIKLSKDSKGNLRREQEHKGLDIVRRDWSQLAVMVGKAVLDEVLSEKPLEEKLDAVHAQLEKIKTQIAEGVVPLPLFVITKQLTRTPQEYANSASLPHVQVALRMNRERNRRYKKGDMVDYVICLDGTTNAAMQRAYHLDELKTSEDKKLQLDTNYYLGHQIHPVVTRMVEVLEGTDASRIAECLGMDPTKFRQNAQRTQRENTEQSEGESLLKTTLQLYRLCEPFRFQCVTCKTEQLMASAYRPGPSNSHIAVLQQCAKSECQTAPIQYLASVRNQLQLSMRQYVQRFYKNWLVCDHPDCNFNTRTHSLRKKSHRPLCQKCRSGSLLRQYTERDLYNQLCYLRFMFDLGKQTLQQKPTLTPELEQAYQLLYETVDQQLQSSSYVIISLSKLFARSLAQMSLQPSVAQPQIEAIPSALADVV
T2 sequence (Q9VB62 whole entry partner): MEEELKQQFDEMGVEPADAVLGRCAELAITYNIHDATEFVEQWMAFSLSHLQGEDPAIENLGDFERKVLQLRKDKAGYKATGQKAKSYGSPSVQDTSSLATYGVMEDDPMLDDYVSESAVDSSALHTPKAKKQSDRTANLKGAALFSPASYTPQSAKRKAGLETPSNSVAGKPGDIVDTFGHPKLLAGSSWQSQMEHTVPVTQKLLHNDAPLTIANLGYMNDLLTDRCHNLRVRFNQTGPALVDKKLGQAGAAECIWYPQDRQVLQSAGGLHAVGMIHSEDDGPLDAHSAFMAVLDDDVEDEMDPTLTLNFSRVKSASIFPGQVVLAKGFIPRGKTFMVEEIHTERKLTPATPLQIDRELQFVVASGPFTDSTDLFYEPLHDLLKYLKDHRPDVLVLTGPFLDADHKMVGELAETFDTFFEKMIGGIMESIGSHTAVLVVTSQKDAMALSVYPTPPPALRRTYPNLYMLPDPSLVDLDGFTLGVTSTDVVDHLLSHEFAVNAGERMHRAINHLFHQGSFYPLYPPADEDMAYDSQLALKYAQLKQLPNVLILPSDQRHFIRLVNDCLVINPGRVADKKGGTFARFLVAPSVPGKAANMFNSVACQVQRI
T2 sequence (Q9VPH2 whole entry partner): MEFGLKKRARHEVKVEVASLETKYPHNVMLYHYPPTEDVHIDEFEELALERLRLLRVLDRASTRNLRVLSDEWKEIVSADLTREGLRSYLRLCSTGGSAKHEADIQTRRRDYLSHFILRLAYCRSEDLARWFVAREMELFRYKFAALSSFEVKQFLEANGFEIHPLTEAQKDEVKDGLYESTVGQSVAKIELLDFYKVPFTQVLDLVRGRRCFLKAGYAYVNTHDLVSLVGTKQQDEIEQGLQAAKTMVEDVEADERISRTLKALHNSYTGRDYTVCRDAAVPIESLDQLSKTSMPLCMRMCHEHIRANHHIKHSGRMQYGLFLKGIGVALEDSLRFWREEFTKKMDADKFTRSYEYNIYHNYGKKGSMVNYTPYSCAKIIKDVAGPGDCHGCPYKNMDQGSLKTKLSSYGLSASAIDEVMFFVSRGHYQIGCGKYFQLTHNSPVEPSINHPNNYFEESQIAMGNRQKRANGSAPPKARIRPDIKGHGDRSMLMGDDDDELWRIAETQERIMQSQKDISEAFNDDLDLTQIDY
T2 sequence (Q24317 whole entry partner): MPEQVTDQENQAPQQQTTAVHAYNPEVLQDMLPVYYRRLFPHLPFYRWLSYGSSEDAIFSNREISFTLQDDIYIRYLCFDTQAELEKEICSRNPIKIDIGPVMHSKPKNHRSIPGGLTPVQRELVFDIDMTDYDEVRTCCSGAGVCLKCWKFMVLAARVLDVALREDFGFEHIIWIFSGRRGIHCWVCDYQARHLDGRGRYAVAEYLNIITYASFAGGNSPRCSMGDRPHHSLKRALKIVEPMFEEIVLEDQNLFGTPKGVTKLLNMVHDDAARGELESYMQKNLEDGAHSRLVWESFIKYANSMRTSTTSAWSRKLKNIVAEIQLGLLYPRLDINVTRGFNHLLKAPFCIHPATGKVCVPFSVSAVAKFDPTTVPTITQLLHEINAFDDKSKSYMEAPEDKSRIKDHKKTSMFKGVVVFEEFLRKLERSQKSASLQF
human telomerase, sequence (O14746 whole entry): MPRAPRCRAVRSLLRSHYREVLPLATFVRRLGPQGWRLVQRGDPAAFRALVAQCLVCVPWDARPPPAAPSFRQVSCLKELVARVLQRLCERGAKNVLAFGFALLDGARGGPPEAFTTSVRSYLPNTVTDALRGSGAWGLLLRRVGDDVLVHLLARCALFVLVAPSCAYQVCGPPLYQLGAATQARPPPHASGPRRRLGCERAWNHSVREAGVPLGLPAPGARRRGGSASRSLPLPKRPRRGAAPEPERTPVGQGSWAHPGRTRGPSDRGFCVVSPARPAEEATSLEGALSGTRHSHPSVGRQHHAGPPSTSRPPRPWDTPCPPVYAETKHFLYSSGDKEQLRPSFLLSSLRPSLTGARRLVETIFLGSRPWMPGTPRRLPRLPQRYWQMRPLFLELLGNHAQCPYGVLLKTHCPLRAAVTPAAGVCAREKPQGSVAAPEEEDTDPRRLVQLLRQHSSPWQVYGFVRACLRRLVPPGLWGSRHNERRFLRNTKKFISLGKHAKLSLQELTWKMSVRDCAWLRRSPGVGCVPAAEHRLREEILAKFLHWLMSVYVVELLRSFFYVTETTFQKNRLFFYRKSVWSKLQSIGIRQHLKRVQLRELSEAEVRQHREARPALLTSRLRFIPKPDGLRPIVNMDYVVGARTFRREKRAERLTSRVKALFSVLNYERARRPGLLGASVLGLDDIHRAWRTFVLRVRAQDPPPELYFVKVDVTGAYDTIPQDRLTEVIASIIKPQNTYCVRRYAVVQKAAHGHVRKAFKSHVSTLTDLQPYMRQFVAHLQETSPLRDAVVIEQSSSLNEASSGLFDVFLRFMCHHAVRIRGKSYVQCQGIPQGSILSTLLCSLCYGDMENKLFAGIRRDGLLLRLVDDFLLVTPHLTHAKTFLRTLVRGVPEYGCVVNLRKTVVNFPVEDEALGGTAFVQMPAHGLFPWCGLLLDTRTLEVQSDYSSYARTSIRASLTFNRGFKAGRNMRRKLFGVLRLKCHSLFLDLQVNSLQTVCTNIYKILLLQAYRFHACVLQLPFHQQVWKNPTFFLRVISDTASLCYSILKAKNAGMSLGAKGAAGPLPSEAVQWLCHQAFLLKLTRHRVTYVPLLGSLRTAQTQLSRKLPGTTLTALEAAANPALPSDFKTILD
T4 sequence (P04415 whole entry): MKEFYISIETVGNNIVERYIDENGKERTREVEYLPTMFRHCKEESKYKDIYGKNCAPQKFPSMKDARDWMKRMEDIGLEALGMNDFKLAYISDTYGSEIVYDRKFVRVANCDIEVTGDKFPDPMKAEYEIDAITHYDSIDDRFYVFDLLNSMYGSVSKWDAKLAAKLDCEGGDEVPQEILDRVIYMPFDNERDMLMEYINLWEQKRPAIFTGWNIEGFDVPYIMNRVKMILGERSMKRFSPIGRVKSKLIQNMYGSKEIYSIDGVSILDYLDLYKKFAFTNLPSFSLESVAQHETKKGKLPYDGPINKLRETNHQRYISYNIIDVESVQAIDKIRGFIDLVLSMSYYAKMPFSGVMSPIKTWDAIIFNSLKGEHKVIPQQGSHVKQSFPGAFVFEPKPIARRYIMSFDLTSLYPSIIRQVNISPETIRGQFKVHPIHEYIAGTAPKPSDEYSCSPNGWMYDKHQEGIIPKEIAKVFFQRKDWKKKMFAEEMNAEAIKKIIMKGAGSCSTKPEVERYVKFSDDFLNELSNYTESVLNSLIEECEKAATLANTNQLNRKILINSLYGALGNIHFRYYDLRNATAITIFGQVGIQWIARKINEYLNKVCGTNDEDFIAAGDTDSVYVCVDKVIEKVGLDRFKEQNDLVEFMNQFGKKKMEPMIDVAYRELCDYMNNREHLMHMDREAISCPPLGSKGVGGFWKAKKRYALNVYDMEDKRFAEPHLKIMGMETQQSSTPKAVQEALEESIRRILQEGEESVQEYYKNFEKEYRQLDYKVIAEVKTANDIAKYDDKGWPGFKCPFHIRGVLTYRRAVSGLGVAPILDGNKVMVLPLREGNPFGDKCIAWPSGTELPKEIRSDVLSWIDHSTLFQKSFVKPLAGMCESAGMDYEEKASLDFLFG

Take `C/C=C/c1occ(C(=O)c2c(OC)cc(OC)cc2C(=O)OC)c(=O)c1OC` [compound 1, 3-O-methylfunicone]: in test [1], the “effect on pol α activity” value is “hardly influenced”. Also, the “effect on fruit fly pol α activity” value in test [2] is “hardly influenced”. In addition, the “effect on fruit fly pol ɛ activity” value in test [3] was “hardly influenced”. Further, the “effect on T4 pol activity” value in test [4] is “no effect”. Besides, in test [5], the “effect on human telomerase activity” value was “did not influence”. The “effect on human topoisomerase II activity” value in test [6] is listed as “did not influence”. For the same molecule, in test [7], the “LD50, cell growth” value stood at 63.3 µM.
